Measured values taken from US6555091B1, “Polypeptide capable of reacting with antibodies of patients suffering from multiple sclerosis and uses” (Bio Merieux, priority 1997, dated 2003).
No end group written: not given here.

Tested on: IgG of sera from MS patients and healthy individuals
Test: ELISA of biotinylated synthetic peptides, IgG response of individual human sera
Type: binding
Conditions: for MS sera giving a positive IgG signal compared with the negative serum which gave the highest signal: 1/100 dilutions of 11 sera from MS patients at the remission stage; for MS sera giving a positive IgG signal compared with the negative serum which gave the highest signal / MS sera recognizing the peptide significantly, cut-off mean of negative sera plus 3 times the standard deviation: 4 negative sera; for MS sera recognizing the peptide significantly, cut-off mean of negative sera plus 3 times the standard deviation / BASELINE / MEAN / OD 1 / OD 2 / OD 3 / BASELINE (mark: above cut-off): IgG; for MS sera recognizing the peptide significantly, cut-off mean of negative sera plus 3 times the standard deviation: 1/100 dilutions of 11 MS remission sera; for BASELINE: cut-off, mean of negative sera plus 3 times the standard deviation; for MEAN / OD 1 / OD 2 / OD 3 / BASELINE (mark: above cut-off): 1/100
Description: Depending on the information obtained from the preceding examples, the hexapeptides SEQ ID NO: 3 and SEQ ID NO: 4 were synthesized and biotinylated according to the method described in Patent Application No. EP 93420183 with the following modifications: the peptide still bound to the resin is selectively deprotected at the N-terminal position. After overnight incubation with the biotin-NHS at 50% in DMF, the peptide is then cleaved from the resin and treated as described in the patent cited above.
The wells of a Maxisorb (trade name, Nunc) microtiter plate are saturated with 100 μl of a 50 mM NaHCO3 solution, pH 9.6, containing 10 μg/ml of streptavidin for 2 hours at 37° C. The plate is washed with TBS/0.05% Tween 20 buffer. The wells are then saturated with 250 μl of wash buffer supplemented with 10% goat serum for 1 hour at 37° C. and then washed as described above.
The sera to be analyzed are diluted 1/100 in saturation buffer, supplemented with 0.05% Tween 20 and incubated for 2 hours at 37° C. After washing, a solution of peroxidase-labeled anti-human immunoglobulin G goat antibody conjugate (marketed by Jackson Immuno Research Laboratories Inc.) is added at the dilution of 1/10,000 and the plates are incubated for 1 hour at 37° C. After washes, the ortho-phenylenediamine (OPD) substrate is added and the reaction is stopped after 10 minutes by adding 50 μl of H2SO4. The optical density is read at 492 nm.
In a test carried out with 1/100 dilutions of 11 English sera from MS patients at the remission stage and 4 negative English sera, the peptides SEQ ID NOs: 3 and 4 are recognized by 4 sera out of 11 which give a positive IgG signal compared with the negative serum which gave the highest signal.

Substance: LQQAVF [SEQ ID NO: 3]
- MS sera giving a positive IgG signal compared with the negative serum which gave the highest signal: 4 sera out of 11
- MS sera recognizing the peptide significantly, cut-off mean of negative sera plus 3 times the standard deviation: 3 sera out of 11
- BASELINE: 815 optical density (×1000)
- MEAN (serum 33/6 (MS+, remission)): 587 optical density (×1000)
- OD 1 (serum 33/6 (MS+, remission)): 535 optical density (×1000)
- OD 2 (serum 33/6 (MS+, remission)): 599 optical density (×1000)
- OD 3 (serum 33/6 (MS+, remission)): 626 optical density (×1000)
- BASELINE (mark: above cut-off) (serum 33/8 (MS+, remission)): X (the mean of the values obtained with the negative sera is calculated and 3 times the standard deviation is added in order to determine a cut-off)
- MEAN (serum 33/8 (MS+, remission)): 1067 optical density (×1000)
- OD 1 (serum 33/8 (MS+, remission)): 990 optical density (×1000)
- OD 2 (serum 33/8 (MS+, remission)): 941 optical density (×1000)
- OD 3 (serum 33/8 (MS+, remission)): 1271 optical density (×1000)
- MEAN (serum 33/18 (MS+, remission)): 395 optical density (×1000)
- OD 1 (serum 33/18 (MS+, remission)): 601 optical density (×1000)
- OD 2 (serum 33/18 (MS+, remission)): 339 optical density (×1000)
- OD 3 (serum 33/18 (MS+, remission)): 246 optical density (×1000)
- MEAN (serum No. 12 (MS−, healthy)): 639 optical density (×1000)
- OD 1 (serum No. 12 (MS−, healthy)): 550 optical density (×1000)
- OD 2 (serum No. 12 (MS−, healthy)): 640 optical density (×1000)
- OD 3 (serum No. 12 (MS−, healthy)): 726 optical density (×1000)
- MEAN (serum No. 13 (MS−, healthy)): 377 optical density (×1000)
- OD 1 (serum No. 13 (MS−, healthy)): 366 optical density (×1000)
- OD 2 (serum No. 13 (MS−, healthy)): 369 optical density (×1000)
- OD 3 (serum No. 13 (MS−, healthy)): 407 optical density (×1000)
- MEAN (serum No. 14 (MS−, healthy)): 307 optical density (×1000)
- OD 1 (serum No. 14 (MS−, healthy)): 367 optical density (×1000)
- OD 2 (serum No. 14 (MS−, healthy)): 285 optical density (×1000)
- OD 3 (serum No. 14 (MS−, healthy)): 270 optical density (×1000)
- MEAN (serum No. 15 (MS−, healthy)): 452 optical density (×1000)
- OD 1 (serum No. 15 (MS−, healthy)): 439 optical density (×1000)
- OD 2 (serum No. 15 (MS−, healthy)): 496 optical density (×1000)
- OD 3 (serum No. 15 (MS−, healthy)): 422 optical density (×1000)
- MEAN (serum QS 2 (MS+, remission)): 309 optical density (×1000)
- OD 1 (serum QS 2 (MS+, remission)): 294 optical density (×1000)
- OD 2 (serum QS 2 (MS+, remission)): 339 optical density (×1000)
- OD 3 (serum QS 2 (MS+, remission)): 293 optical density (×1000)
- MEAN (serum QS 3 (MS+, remission)): 727 optical density (×1000)
- OD 1 (serum QS 3 (MS+, remission)): 618 optical density (×1000)
- OD 2 (serum QS 3 (MS+, remission)): 784 optical density (×1000)
- OD 3 (serum QS 3 (MS+, remission)): 779 optical density (×1000)
- BASELINE (mark: above cut-off) (serum QS 4 (MS+, remission)): X (the mean of the values obtained with the negative sera is calculated and 3 times the standard deviation is added in order to determine a cut-off)
- MEAN (serum QS 4 (MS+, remission)): 1346 optical density (×1000)
- OD 1 (serum QS 4 (MS+, remission)): 1161 optical density (×1000)
- OD 2 (serum QS 4 (MS+, remission)): 1293 optical density (×1000)
- OD 3 (serum QS 4 (MS+, remission)): 1583 optical density (×1000)
- MEAN (serum QS 6 (MS+, remission)): 325 optical density (×1000)
- OD 1 (serum QS 6 (MS+, remission)): 306 optical density (×1000)
- OD 2 (serum QS 6 (MS+, remission)): 263 optical density (×1000)
- OD 3 (serum QS 6 (MS+, remission)): 407 optical density (×1000)
- BASELINE (mark: above cut-off) (serum QS 7 (MS+, remission)): X (the mean of the values obtained with the negative sera is calculated and 3 times the standard deviation is added in order to determine a cut-off)
- MEAN (serum QS 7 (MS+, remission)): 1355 optical density (×1000)
- OD 1 (serum QS 7 (MS+, remission)): 1307 optical density (×1000)
- OD 2 (serum QS 7 (MS+, remission)): 1298 optical density (×1000)
- OD 3 (serum QS 7 (MS+, remission)): 1461 optical density (×1000)
- MEAN (serum QS 8 (MS+, remission)): 615 optical density (×1000)
- OD 1 (serum QS 8 (MS+, remission)): 664 optical density (×1000)
- OD 2 (serum QS 8 (MS+, remission)): 635 optical density (×1000)
- OD 3 (serum QS 8 (MS+, remission)): 545 optical density (×1000)
- MEAN (serum QS 11 (MS+, remission)): 235 optical density (×1000)
- OD 1 (serum QS 11 (MS+, remission)): 429 optical density (×1000)
- OD 2 (serum QS 11 (MS+, remission)): 169 optical density (×1000)
- OD 3 (serum QS 11 (MS+, remission)): 108 optical density (×1000)
- MEAN (serum QS 12 (MS+, remission)): 398 optical density (×1000)
- OD 1 (serum QS 12 (MS+, remission)): 405 optical density (×1000)
- OD 2 (serum QS 12 (MS+, remission)): 472 optical density (×1000)
- OD 3 (serum QS 12 (MS+, remission)): 316 optical density (×1000)

Substance: STGRPL [SEQ ID NO: 4]
- MS sera giving a positive IgG signal compared with the negative serum which gave the highest signal: 4 sera out of 11
- MS sera recognizing the peptide significantly, cut-off mean of negative sera plus 3 times the standard deviation: 3 sera out of 11
- BASELINE: 674 optical density (×1000)
- MEAN (serum 33/6 (MS+, remission)): 496 optical density (×1000)
- OD 1 (serum 33/6 (MS+, remission)): 465 optical density (×1000)
- OD 2 (serum 33/6 (MS+, remission)): 496 optical density (×1000)
- OD 3 (serum 33/6 (MS+, remission)): 525 optical density (×1000)
- BASELINE (mark: above cut-off) (serum 33/8 (MS+, remission)): X (the mean of the values obtained with the negative sera is calculated and 3 times the standard deviation is added in order to determine a cut-off)
- MEAN (serum 33/8 (MS+, remission)): 807 optical density (×1000)
- OD 1 (serum 33/8 (MS+, remission)): 849 optical density (×1000)
- OD 2 (serum 33/8 (MS+, remission)): 820 optical density (×1000)
- OD 3 (serum 33/8 (MS+, remission)): 753 optical density (×1000)
- MEAN (serum 33/18 (MS+, remission)): 267 optical density (×1000)
- OD 1 (serum 33/18 (MS+, remission)): 258 optical density (×1000)
- OD 2 (serum 33/18 (MS+, remission)): 243 optical density (×1000)
- OD 3 (serum 33/18 (MS+, remission)): 299 optical density (×1000)
- MEAN (serum No. 12 (MS−, healthy)): 518 optical density (×1000)
- OD 1 (serum No. 12 (MS−, healthy)): 567 optical density (×1000)
- OD 2 (serum No. 12 (MS−, healthy)): 518 optical density (×1000)
- OD 3 (serum No. 12 (MS−, healthy)): 469 optical density (×1000)
- MEAN (serum No. 13 (MS−, healthy)): 271 optical density (×1000)
- OD 1 (serum No. 13 (MS−, healthy)): 286 optical density (×1000)
- OD 2 (serum No. 13 (MS−, healthy)): 278 optical density (×1000)
- OD 3 (serum No. 13 (MS−, healthy)): 268 optical density (×1000)
- MEAN (serum No. 14 (MS−, healthy)): 359 optical density (×1000)
- OD 1 (serum No. 14 (MS−, healthy)): 322 optical density (×1000)
- OD 2 (serum No. 14 (MS−, healthy)): 401 optical density (×1000)
- OD 3 (serum No. 14 (MS−, healthy)): 354 optical density (×1000)
- MEAN (serum No. 15 (MS−, healthy)): 442 optical density (×1000)
- OD 1 (serum No. 15 (MS−, healthy)): 423 optical density (×1000)
- OD 2 (serum No. 15 (MS−, healthy)): 432 optical density (×1000)
- OD 3 (serum No. 15 (MS−, healthy)): 470 optical density (×1000)
- MEAN (serum QS 2 (MS+, remission)): 277 optical density (×1000)
- OD 1 (serum QS 2 (MS+, remission)): 267 optical density (×1000)
- OD 2 (serum QS 2 (MS+, remission)): 296 optical density (×1000)
- OD 3 (serum QS 2 (MS+, remission)): 267 optical density (×1000)
- MEAN (serum QS 3 (MS+, remission)): 624 optical density (×1000)
- OD 1 (serum QS 3 (MS+, remission)): 668 optical density (×1000)
- OD 2 (serum QS 3 (MS+, remission)): 618 optical density (×1000)
- OD 3 (serum QS 3 (MS+, remission)): 585 optical density (×1000)
- BASELINE (mark: above cut-off) (serum QS 4 (MS+, remission)): X (the mean of the values obtained with the negative sera is calculated and 3 times the standard deviation is added in order to determine a cut-off)
- MEAN (serum QS 4 (MS+, remission)): 1026 optical density (×1000)
- OD 1 (serum QS 4 (MS+, remission)): 1096 optical density (×1000)
- OD 2 (serum QS 4 (MS+, remission)): 1120 optical density (×1000)
- OD 3 (serum QS 4 (MS+, remission)): 862 optical density (×1000)
- MEAN (serum QS 6 (MS+, remission)): 206 optical density (×1000)
- OD 1 (serum QS 6 (MS+, remission)): 204 optical density (×1000)
- OD 2 (serum QS 6 (MS+, remission)): 212 optical density (×1000)
- OD 3 (serum QS 6 (MS+, remission)): 201 optical density (×1000)
- BASELINE (mark: above cut-off) (serum QS 7 (MS+, remission)): X (the mean of the values obtained with the negative sera is calculated and 3 times the standard deviation is added in order to determine a cut-off)
- MEAN (serum QS 7 (MS+, remission)): 1380 optical density (×1000)
- OD 1 (serum QS 7 (MS+, remission)): 1379 optical density (×1000)
- OD 2 (serum QS 7 (MS+, remission)): 1437 optical density (×1000)
- OD 3 (serum QS 7 (MS+, remission)): 1323 optical density (×1000)
- MEAN (serum QS 8 (MS+, remission)): 552 optical density (×1000)
- OD 1 (serum QS 8 (MS+, remission)): 523 optical density (×1000)
- OD 2 (serum QS 8 (MS+, remission)): 504 optical density (×1000)
- OD 3 (serum QS 8 (MS+, remission)): 630 optical density (×1000)
- MEAN (serum QS 11 (MS+, remission)): 269 optical density (×1000)
- OD 1 (serum QS 11 (MS+, remission)): 272 optical density (×1000)
- OD 2 (serum QS 11 (MS+, remission)): 273 optical density (×1000)
- OD 3 (serum QS 11 (MS+, remission)): 261 optical density (×1000)
- MEAN (serum QS 12 (MS+, remission)): 237 optical density (×1000)
- OD 1 (serum QS 12 (MS+, remission)): 271 optical density (×1000)
- OD 2 (serum QS 12 (MS+, remission)): 227 optical density (×1000)
- OD 3 (serum QS 12 (MS+, remission)): 212 optical density (×1000)
